From PMC12373846, “Hemoglobin as a pseudoperoxidase and drug target for oxidative stress-related diseases” (Signal Transduction and Targeted Therapy, 2025)

Biological target: T1, HRP (Armoracia rusticana, UniProt P00433)
T1 sequence (P00433 31-353): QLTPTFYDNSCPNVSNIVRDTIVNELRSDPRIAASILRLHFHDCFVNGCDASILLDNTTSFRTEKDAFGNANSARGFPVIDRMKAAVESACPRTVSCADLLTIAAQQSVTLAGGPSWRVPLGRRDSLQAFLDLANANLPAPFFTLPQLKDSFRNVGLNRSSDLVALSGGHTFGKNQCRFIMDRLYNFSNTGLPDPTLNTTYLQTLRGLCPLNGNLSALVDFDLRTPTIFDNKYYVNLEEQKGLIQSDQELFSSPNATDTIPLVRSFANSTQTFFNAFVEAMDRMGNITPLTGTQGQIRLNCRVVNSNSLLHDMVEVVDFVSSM
Assay: Amplex Red H2O2 assay (HRP-dependent)
Assay type: biochemical, horseradish
Settings: Fig. 1b; read-out: EC50, dose-response in Amplex Red assay
Procedure: Hb (Sigma‒Aldrich, H7379), H2O2 (Sigma‒Aldrich, H1009), and Amplex Red reagents (Invitrogen, A12222) were obtained for the study. A 4 μM H2O2 solution was prepared in 50 mM sodium phosphate buffer (pH 7.2). Then, 49 μl of this mixture was mixed with 1 μl of the test compound in DMSO or distilled water. The mixture was combined with an assay mixture of Amplex Red reagent (20 mM stock to 0.1 mM) and HRP (200 U/ml stock to 0.2 U/ml) and added to the wells at 50 μl/well. After a 60-min incubation at 37 °C, resorufin production was quantified via a microplate fluorescence reader (SpectraMax iD5, Molecular Devices) at ex/em = 535/580 nm. The H2O2-decomposing activity was estimated via the following equation: (sample fluorescence-blank fluorescence)/(control […]-blank fluorescence) × 100. For the ROS-Glo assay, the H2O2 substrate solution and ROS-Glo detection solution were prepared according to the manufacturer’s instructions. 10 μM H2O2 and drugs were prepared as in the Amplex Red assay, with HRP, Hb, CAT, or GPx added as needed. […] Luminescence was measured via iD5 microplate readers. The H2O2-decomposing activity was estimated via the following equation: (sample luminescence-blank luminescence)/(control luminescence-blank luminescence) × 100. The U/ml was calculated on the basis of the amount of H2O2 reduced by Hb during the reaction, using μg/ml and U/mg.

## O=C(O)c1cc(NCCc2ccc(C(F)(F)F)cc2)ccc1O [HTPEB, 2-hydroxy-5-[2-(4-trifluoromethyl-phenyl)-ethylamino]-benzoic acid, reference compound]
  EC50: 1.8 µM
